Data from US9464058B2 (Hoffmann-La Roche Inc., priority 2012, dated 2016).

Columns and labels:
[1] = target: T1, human CYP11B2 (Homo sapiens, UniProt P19099); assay: G-402 cellular enzyme assay, human CYP11B2 (aldosterone release, HTRF); format: cell-based; settings: G-402 cells expressing human CYP11B2; 1 μM Deoxycorticosterone; 16 h
T1 construct: expressed in transfected cells
T1 sequence (P19099 25-503): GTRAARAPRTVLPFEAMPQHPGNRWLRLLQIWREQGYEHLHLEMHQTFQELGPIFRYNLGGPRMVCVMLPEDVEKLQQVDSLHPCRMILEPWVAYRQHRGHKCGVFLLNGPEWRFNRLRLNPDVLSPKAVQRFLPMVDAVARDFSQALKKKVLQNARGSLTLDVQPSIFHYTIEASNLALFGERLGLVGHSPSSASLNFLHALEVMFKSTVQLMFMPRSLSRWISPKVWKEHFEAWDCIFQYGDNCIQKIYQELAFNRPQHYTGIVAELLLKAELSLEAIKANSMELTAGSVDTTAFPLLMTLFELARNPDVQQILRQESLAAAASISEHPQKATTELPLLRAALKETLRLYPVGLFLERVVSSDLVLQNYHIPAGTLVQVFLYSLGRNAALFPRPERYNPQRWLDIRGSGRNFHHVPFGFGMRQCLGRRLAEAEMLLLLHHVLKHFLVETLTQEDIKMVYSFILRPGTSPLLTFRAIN
Excerpt: (§1) Herein we identified the use of the G-402 cell line as a host cell to ectopically express (transiently or stably) enzymes of the CYP11 family. Specifically we developed stable G-402 cells expressing ectopically human CYP11B1, human CYP11B2, human CYP11A1, cynomolgus CYP11B1 or cynomolgus CYP11B2 enzyme activity. Importantly, the identified cell line G-402 expresses co-factors (adrenodoxin and adrenodoxin reductase) important for the activity of the CYP11 family, and no relevant enzyme activity of the CYP11 family (in comparison to H295R cells) was detected in these cells. Therefore the G-402 cell line is uniquely suited as a host cell for the ectopic expression of enzymes from the CYP11 family.
(§2) G-402 cells can be obtained from ATCC(CRL-1440) and were originally derived from a renal leiomyoblastoma.
(§3) The expression plasmids contains the ORF for either human/cyno CYP11B1 or CYP11B2 under the control of a suitable promoter (CMV-promoter) and a suitable resistance marker (neomycin). Using standard techniques the expression plasmid is transfected into G-402 cells and these cells are then selected for expressing the given resistance markers. Individual cell-clones are then selected and assessed for displaying the desired enzymatic activity using 11-Deoxycorticosterone (Cyp11B2) or 11-Deoxycortisol (Cyp11B1) as a substrate.
(§4) G-402 cells expressing CYP11 constructs were established as described above and maintained in McCoy's 5a Medium Modified, ATCC Catalog No. 30-2007 containing 10% FCS and 400 μg/ml G418 (Geneticin) at 37° C. under an atmosphere of 5% CO2/95% air. Cellular enzyme assays were performed in DMEM/F12 medium containing 2.5% charcoal treated FCS and appropriate concentration of substrate (0.3-10 uM 11-Deoxycorticosterone, 11-Deoxycortisol or Corticosterone). For assaying enzymatic activity, cells were plated onto 96 well plates and incubated for 16 h. An aliquot of the supernatant is then transferred and analyzed for the concentration of the expected product (Aldosterone for CYP11B2; Cortisol for CYP11B1). The concentrations of these steroids can be determined using HTRF assays from CisBio analyzing either Aldosterone or Cortisol.
(§5) Inhibition of the release of produced steroids can be used as a measure of the respective enzyme inhibition by test compounds added during the cellular enzyme assay. The dose dependent inhibition of enzymatic activity by a compound is calculated by means of plotting added inhibitor concentrations (x-axes) vs. measured steroid/product level (y-axes). The inhibition is then calculated by fitting the following 4-parameter sigmoidal function (Morgan-Mercer-Flodin (MMF) model) to the raw data points using the least squares method:
(§6) [formula] wherein A is the maximum y value, B is the EC50 factor determined using XLFit, C is the minimum y value and D is the slope value.
(§7) EC50 values for compounds claimed herein were tested with the G402-based assay system described. Cyp11B2 enzyme activity was tested in presence of 1 μM Deoxycorticosterone and variable amounts of inhibitors; Cyp11B1 enzyme activity was tested in presence of 1 μM Deoxycortisol and variable amounts of inhibitors.

[2] = target: T2, human CYP11B1 (Homo sapiens, UniProt P15538); assay: G-402 cellular enzyme assay, human CYP11B1 (cortisol release, HTRF); format: cell-based; settings: G-402 cells expressing human CYP11B1; 1 μM Deoxycortisol; 16 h
T2 construct: expressed in transfected cells
T2 sequence (P15538 25-503): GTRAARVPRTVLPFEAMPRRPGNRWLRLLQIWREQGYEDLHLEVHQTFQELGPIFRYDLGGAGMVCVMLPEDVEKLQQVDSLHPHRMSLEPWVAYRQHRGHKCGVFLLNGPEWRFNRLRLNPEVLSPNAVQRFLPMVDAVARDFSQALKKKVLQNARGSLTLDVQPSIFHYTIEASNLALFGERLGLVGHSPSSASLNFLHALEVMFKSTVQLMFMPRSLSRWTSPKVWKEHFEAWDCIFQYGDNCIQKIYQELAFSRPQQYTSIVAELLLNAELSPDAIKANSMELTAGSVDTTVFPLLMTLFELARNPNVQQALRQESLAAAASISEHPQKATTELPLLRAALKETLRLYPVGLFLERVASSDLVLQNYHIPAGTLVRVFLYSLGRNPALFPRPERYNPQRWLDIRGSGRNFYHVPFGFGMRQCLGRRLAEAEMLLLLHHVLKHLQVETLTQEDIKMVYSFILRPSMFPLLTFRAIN
Excerpt: as §1, §2, §3, §4, §5, §6, §7

Structure (SMILES) | EC50 [1] [nM] | EC50 [2] [nM]
CCC(C)n1cncc1C(=O)c1ccc(C#N)cc1 (stereo not shown) [Example 16, 4-(3-sec-Butyl-3H-imidazole-4-carbonyl)-benzonitrile] | 0.7 | 1
CCC(C)n1cncc1C(=O)c1ccc(Cl)cc1 (stereo not shown) [Example 17] | 0.3 | 3.5
N#Cc1ccc(C(=O)c2cncn2C2CC2)cc1 [Example 18, 4-(3-Cyclopropyl-3H-imidazole-4-carbonyl)-benzonitrile] | 2.3 | 28.7
O=C(c1ccc(Cl)cc1)c1cncn1C1CC1 [Example 19, (4-Chloro-phenyl)-(3-cyclopropyl-3H-imidazol-4-yl)-methanone] | 6.1 | 52.9
N#Cc1ccc(C(=O)c2cncn2CC(F)(F)F)cc1 [Example 20, 4-[3-(2,2,2-Trifluoro-ethyl)-3H-imidazole-4-carbonyl]-benzonitrile] | 23.5 | 190
Cn1cncc1C(=O)c1cccc(C#N)c1 [Example 21, 3-(3-Methyl-3H-imidazole-4-carbonyl)-benzonitrile] | 583 | 8710
Cn1cncc1C(=O)c1cccc(Cl)c1 [Example 22, (3-Chloro-phenyl)-(3-methyl-3H-imidazol-4-yl)-methanone] | 32.6 | 543
Cn1cncc1C(=O)c1ccc(F)cc1 [Example 23, (4-Fluoro-phenyl)-(3-methyl-3H-imidazol-4-yl)-methanone] | 49.3 | 151
Cn1cncc1C(=O)c1cccc(F)c1 [Example 24, (3-Fluoro-phenyl)-(3-methyl-3H-imidazol-4-yl)-methanone] | 65.2 | 673
CN1C(=O)CCc2cc(C(=O)c3cncn3C)ccc21 [Example 25, 1-Methyl-6-(3-methyl-3H-imidazole-4-carbonyl)-3,4-dihydro-1H-quinolin-2-one] | 77 | 7880
CCn1cncc1C(=O)c1ccc2c(c1)CCC(=O)N2C [Example 26, 6-(3-Ethyl-3H-imidazole-4-carbonyl)-1-methyl-3,4-dihydro-1H-quinolin-2-one] | 19.7 | 1120
CC(C)n1cncc1C(=O)c1ccc2c(c1)CCC(=O)N2C [Example 27, 6-(3-Isopropyl-3H-imidazole-4-carbonyl)-1-methyl-3,4-dihydro-1H-quinolin-2-one] | 6.9 | 153
CCC(C)n1cncc1C(=O)c1cccc(Cl)c1 (stereo not shown) [Example 28, (3-sec-Butyl-3H-imidazol-4-yl)-(3-chloro-phenyl)-methanone] | 14.1 | 22.7
C#Cc1ccc(C(=O)c2cncn2C)cc1 [Example 29, (4-Ethynyl-phenyl)-(3-methyl-3H-imidazol-4-yl)-methanone] | 20.3 | 259
Cn1cncc1C(=O)c1ccc(C(F)(F)F)cc1 [Example 31, (3-Methyl-3H-imidazol-4-yl)-(4-trifluoromethyl-phenyl)-methanone] | 197 | 7840
Cn1cncc1C(=O)c1ccc(F)c(Cl)c1 [Example 32, (3-Chloro-4-fluoro-phenyl)-(3-methyl-3H-imidazol-4-yl)-methanone] | 11.7 | 304

Structure (SMILES) | EC50 [1] [nM] | EC50 [2] [nM]
CCn1cncc1C(=O)c1ccc(F)c(Cl)c1 [Example 33, (3-Chloro-4-fluoro-phenyl)-(3-ethyl-3H-imidazol-4-yl)-methanone] | 3.7 | 31.7
CCn1cncc1C(=O)c1ccc(Cl)c(F)c1 [Example 34, (4-Chloro-3-fluoro-phenyl)-(3-ethyl-3H-imidazol-4-yl)-methanone] | 2.7 | 33
CCn1cncc1C(=O)c1ccc(C(C)(C)C)cc1 [Example 35, (4-tert-Butyl-phenyl)-(3-ethyl-3H-imidazol-4-yl)-methanone] | 3670 | 1690
CCn1cncc1C(=O)c1ccc(C(F)(F)F)cc1 [Example 36, (3-Ethyl-3H-imidazol-4-yl)-(4-trifluoromethyl-phenyl)-methanone] | 58.7 | 1750
CCC(C)n1cncc1C(=O)c1cccc(C#N)c1 (stereo not shown) [Example 37, 3-(3-sec-Butyl-3H-imidazole-4-carbonyl)-benzonitrile] | 6.3 | 78.2
CC(C)n1cncc1C(=O)c1ccc(F)c(Cl)c1 [Example 38, (3-Chloro-4-fluoro-phenyl)-(3-isopropyl-3H-imidazol-4-yl)-methanone] | 3.9 | 3.9
CC(C)n1cncc1C(=O)c1ccc(Cl)c(F)c1 [Example 39, (4-Chloro-3-fluoro-phenyl)-(3-isopropyl-3H-imidazol-4-yl)-methanone] | 0.7 | 3.3
O=C(c1ccc(Cl)c(F)c1)c1cncn1C1CC1 [Example 40, (4-Chloro-3-fluoro-phenyl)-(3-cyclopropyl-3H-imidazol-4-yl)-methanone] | 2.3 | 14.8
O=C(c1ccc(F)c(Cl)c1)c1cncn1C1CC1 [Example 41, (3-Chloro-4-fluoro-phenyl)-(3-cyclopropyl-3H-imidazol-4-yl)-methanone] | 3.5 | 21
Cn1cncc1C(=O)c1ccc(C#N)c(Cl)c1 [Example 42, 2-Chloro-4-(3-methyl-3H-imidazole-4-carbonyl)-benzonitrile] | 7.4 | 89.3
CSc1ccc(C(=O)c2cncn2C)cc1 [Example 43, (3-Methyl-3H-imidazol-4-yl)-(4-methylsulfanyl-phenyl)-methanone] | 28.4 | 1530
Cn1cncc1C(=O)c1ccc2sccc2c1 [Example 44, Benzo[b]thiophen-5-yl-(3-methyl-3H-imidazol-4-yl)-methanone] | 40.9 | 1070
Cn1cncc1C(=O)c1ccc(F)c(C#N)c1 [Example 45, 2-Fluoro-5-(3-methyl-3H-imidazole-4-carbonyl)-benzonitrile] | 575 | 11300
CCn1cncc1C(=O)c1ccc(C#N)c(Cl)c1 [Example 46, 2-Chloro-4-(3-ethyl-3H-imidazole-4-carbonyl)-benzonitrile] | 2.3 | 25.4
C#Cc1ccc(C(=O)c2cncn2CC)cc1 [Example 48, (3-Ethyl-3H-imidazol-4-yl)-(4-ethynyl-phenyl)-methanone] | 4.3 | 33
CC(C)n1cncc1C(=O)c1ccc(C#N)c(Cl)c1 [Example 49, 2-Chloro-4-(3-isopropyl-3H-imidazole-4-carbonyl)-benzonitrile] | 0.2 | 1
